Data on 2 molecules can be found in US20030211168A1, “Drug carrier pellet production process” (priority 2000, published 2003).

Counter-ions that a name gives are not always drawn. Where only a bound is given, the exact number is not on record here.

Data set [1] in a line: Solubility of active drug substances in water. It is filed as physicochemical.
Data set [2] is described as follows: Particle size of active drug substance. It counts as physicochemical. The following applies: drug substance raw material.

Broadly, the solubility is how much of the substance goes into solution per volume. The molecule `COc1ccc([C@@H]2Sc3ccccc3N(CCN(C)C)C(=O)[C@@H]2OC(C)=O)cc1` [Diltiazem hydrochloride] yielded a solubility in data set [1] greater than 100 mg/mL.
Consider `NS(=O)(=O)c1cc(C(=O)O)c(NCc2ccco2)cc1Cl` [Furosemide], for which, in data set [2], the Particle size is reported as less than 10 μm.
